Experimental data from patent US20240308968A1, “FUNGICIDAL SUBSTITUTED HETEROCYCLES” (FMC Corporation, priority 2021, published 2024).

Tests used:
Format in all cases: in vivo
Phakopsora pachyrhizi = test: Test D: preventive spray on soybean seedlings, Asian soybean rust disease rating; settings: 100 = 100% disease control, 0 = no control; for pest or weed control at 50 ppm: Phakopsora pachyrhizi, 216 h
Outline: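 Compounds in acetone/water (50/50) with 50–250 ppm PEG400 sprayed to run-off on soybean seedlings; inoculated next day with P. pachyrhizi spores, held 24 h saturated at 22° C, then 8 days at 22° C before visual disease rating.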

[1] = tested on: Blumeria graminis f. sp. Tritici; test: Test C: preventive spray on wheat seedlings, wheat powdery mildew disease rating; settings: 100 = 100% disease control, 0 = no control; for pest or weed control at 50 ppm: Blumeria graminis, 192 h
Outline: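 Wheat seedlings sprayed to run-off with test suspension (acetone 3% dissolution, then acetone/water 50/50 with 50–250 ppm PEG400), inoculated next day with Blumeria graminis spore dust. Held 8 days at 20° C in growth chamber, then visually rated (100 = full control, 0 = none, relative to controls).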

Zymoseptoria tritici = test: Test A: preventive spray on wheat seedlings, wheat leaf blotch disease rating; settings: 100 = 100% disease control, 0 = no control; for pest or weed control at 50 ppm: Zymoseptoria tritici, 456 h
Outline: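 Compounds in acetone/water (50/50) with 50–250 ppm PEG400, sprayed to run-off on wheat seedlings. Inoculated next day with Z. tritici spores, 48 h saturated atmosphere at 24 °C, then 17 days at 20 °C before disease rating.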

[2] = tested on: Puccinia recondita f. sp. Tritici; test: Test B: preventive spray on wheat seedlings, wheat leaf rust disease rating; settings: 100 = 100% disease control, 0 = no control; for pest or weed control at 50 ppm: Puccinia recondita, 192 h
Outline: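 Compounds in acetone/water (50/50) with 50-250 ppm PEG400 sprayed to run-off on wheat seedlings; inoculated with P. recondita spores next day. Held 24 h saturated at 20° C., then 7 days in growth chamber at 20° C. before rating; 100 = full control, 0 = none versus controls.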

Botrytis cinerea = test: Test E: preventive spray on tomato seedlings, tomato Botrytis disease rating; settings: 100 = 100% disease control, 0 = no control; for pest or weed control at 50 ppm: Botrytis cinerea, 120 h
Outline: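 Tomato seedlings sprayed to run-off with compound suspended in acetone/water with PEG400 surfactant, then inoculated next day with Botrytis cinerea spores. Held 48 h saturated at 20 °C, then 3 days at 24 °C; disease rated visually, 0 to 100% control relative to controls.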

Alternaria solani = test: Test F: preventive spray on tomato seedlings, tomato early blight disease rating; settings: 100 = 100% disease control, 0 = no control; for pest or weed control at 50 ppm: Alternaria solani, 120 h
Outline: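 Tomato seedlings were sprayed to run-off with compound suspensions in ppm (acetone/water with PEG400 surfactant) and inoculated with Alternaria solani spores the next day. Plants were held 48 h saturated at 27 °C, then 3 days at 20 °C. Disease was rated visually, with 100 as full control and 0 as none, relative to controls.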

SMILES	Test D disease control rating (Phakopsora pachyrhizi; 50 ppm)	Test C disease control rating ([1]; 50 ppm)	Test A disease control rating (Zymoseptoria tritici; 50 ppm)	Test B disease control rating ([2]; 50 ppm)	Test E disease control rating (Botrytis cinerea; 50 ppm)	Test F disease control rating (Alternaria solani; 50 ppm)	further results
COc1cc(OC)c(Cl)c(-n2nc(CO)c(=O)c(Cl)c2-c2ccc(F)cc2Cl)c1 [Compound 99]	–	–	–	–	–	–	Test D disease control rating (Phakopsora pachyrhizi; 250 ppm): 99%; Test C disease control rating ([1]; 250 ppm): 95%; Test A disease control rating (Zymoseptoria tritici; 250 ppm): 100%; Test B disease control rating ([2]; 250 ppm): 100%; Test E disease control rating (Botrytis cinerea; 250 ppm): 93%; Test F disease control rating (Alternaria solani; 250 ppm): 96%
COc1cc(OC)cc(-n2nc(CF)c(=O)c(C)c2-c2ccc(F)cc2F)c1 [Compound 26]	99%	98%	100%	100%	98%	99%	–
COc1cc(OC)cc(-c2c(-c3ccc(F)cc3F)noc(=O)c2C)c1 [Compound 61]	0%	0%	63%	55%	83%	0%	–
COc1ccc(Cl)c(-n2nc(Cl)c(=O)c(Br)c2-c2ccc(F)cc2Cl)c1 [Compound 134]	100%	86%	100%	100%	99%	99%	–
COc1ccc(Cl)c(-n2nc(Cl)c(=O)c(Cl)c2-c2ccc(F)cc2Cl)c1 [Compound 103]	100%	97%	100%	100%	100%	99%	–
CCOC(=O)c1nn(-c2cc(OC)cc(OC)c2Cl)c(-c2ccc(F)cc2Cl)c(C)c1=O [Compound 98]	–	–	–	–	–	–	Test D disease control rating (Phakopsora pachyrhizi; 250 ppm): 94%; Test C disease control rating ([1]; 250 ppm): 0%; Test A disease control rating (Zymoseptoria tritici; 250 ppm): 0%; Test B disease control rating ([2]; 250 ppm): 98%; Test E disease control rating (Botrytis cinerea; 250 ppm): 96%; Test F disease control rating (Alternaria solani; 250 ppm): 0%
COc1cc(OC)c(Cl)c(-n2nc(I)c(=O)c(C)c2-c2ccc(F)cc2Cl)c1 [Compound 96]	100%	99%	100%	100%	98%	100%	–
COc1cc(OC)cc(-c2c(-c3c(F)cc(F)cc3F)noc(=O)c2C)c1 [Compound 60]	75%	96%	82%	99%	87%	62%	–
Cc1c(-c2ccc(F)cc2Cl)c(-c2nn(C)cc2Cl)nn(C)c1=O [Compound 22]	53%	98%	94%	93%	94%	0%	–
COc1cc(OC)c(Cl)c(-n2c(-c3ccc(F)cc3Cl)cc(=O)n(C)c2=O)c1 [Compound 36, 1-(2-chloro-3,5-dimethoxyphenyl)-6-(2-chloro-4-fluorophenyl)-3-methyl-2,4(1H,3H)-pyrimidinedione]	–	–	–	–	–	–	pest or weed control at 50 ppm (Phakopsora pachyrhizi; 50 ppm): 89%; pest or weed control at 50 ppm ([1]; 50 ppm): 92%; pest or weed control at 50 ppm (Zymoseptoria tritici; 50 ppm): 95%; pest or weed control at 50 ppm ([2]; 50 ppm): 100%; pest or weed control at 50 ppm (Botrytis cinerea; 50 ppm): 88%; pest or weed control at 50 ppm (Alternaria solani; 50 ppm): 0%
CCOC(=O)c1c(-c2ccc(F)cc2F)n(-c2cc(OC)cc(OC)c2)nc(C(=O)O)c1=O [Compound 89]	–	–	–	–	–	–	Test D disease control rating (Phakopsora pachyrhizi; 250 ppm): 0%; Test C disease control rating ([1]; 250 ppm): 0%; Test A disease control rating (Zymoseptoria tritici; 250 ppm): 0%; Test B disease control rating ([2]; 250 ppm): 0%; Test E disease control rating (Botrytis cinerea; 250 ppm): 0%; Test F disease control rating (Alternaria solani; 250 ppm): 0%
COc1cc(OC)c(Cl)c(-n2c(-c3ccc(F)cc3Cl)c(C)c(=O)n(C)c2=O)c1 [Compound 37, 1-(2-chloro-3,5-dimethoxyphenyl)-6-(2-chloro-4-fluorophenyl)-3,5-dimethyl-2,4(1H,3H)-pyrimidinedione]	–	–	–	–	–	–	pest or weed control at 50 ppm (Phakopsora pachyrhizi; 50 ppm): 77%; pest or weed control at 50 ppm ([1]; 50 ppm): 98%; pest or weed control at 50 ppm (Zymoseptoria tritici; 50 ppm): 100%; pest or weed control at 50 ppm ([2]; 50 ppm): 100%; pest or weed control at 50 ppm (Botrytis cinerea; 50 ppm): 95%; pest or weed control at 50 ppm (Alternaria solani; 50 ppm): 53%
COc1cc(OC)cc(-c2ncncc2-c2c(F)cc(F)cc2F)c1 [Compound 40]	–	–	–	–	–	–	Test D disease control rating (Phakopsora pachyrhizi; 250 ppm): 0%; Test C disease control rating ([1]; 250 ppm): 69%; Test A disease control rating (Zymoseptoria tritici; 250 ppm): 0%; Test B disease control rating ([2]; 250 ppm): 9%; Test E disease control rating (Botrytis cinerea; 250 ppm): 0%; Test F disease control rating (Alternaria solani; 250 ppm): 0%
COc1cc(OC)cc(-c2ncnc(OC)c2-c2c(F)cc(F)cc2F)c1 [Compound 51]	8%	0%	0%	9%	30%	0%	–
COc1ccc(Cl)c(-n2nc(Br)c(=O)cc2-c2ccc(F)cc2Cl)c1 [Compound 136]	0%	68%	82%	99%	99%	0%	–
CCOC(=O)c1nn(-c2cc(OC)cc(OC)c2Cl)c(-c2ccc(F)cc2)c(C(=O)OCC)c1=O [Compound 126]	0%	0%	0%	28%	0%	0%	–
COc1ccc(Cl)c(-n2nc(C)c(=O)c(Br)c2-c2ccc(F)cc2Cl)c1 [Compound 124, 5-bromo-1-(2-chloro-5-methoxyphenyl)-6-(2-chloro-4-fluorophenyl)-3-methyl-4(1)-pyridazinone]	100%	100%	100%	100%	99%	100%	–
COc1cc(OC)c(Cl)c(-n2nc(C)c(=O)c(C)c2-c2ccc(F)cc2F)c1 [Compound 33, 1-(2-chloro-3,5-dimethoxyphenyl)-6-(2,4-difluorophenyl)-3,5-dimethyl-4(1H)-pyridazinone]	–	–	–	–	–	–	pest or weed control at 50 ppm (Phakopsora pachyrhizi; 50 ppm): 100%; pest or weed control at 50 ppm ([1]; 50 ppm): 100%; pest or weed control at 50 ppm (Zymoseptoria tritici; 50 ppm): 100%; pest or weed control at 50 ppm ([2]; 50 ppm): 100%; pest or weed control at 50 ppm (Botrytis cinerea; 50 ppm): 98%; pest or weed control at 50 ppm (Alternaria solani; 50 ppm): 94%
CCOC(=O)c1nn(-c2cc(OC)ccc2Cl)c(-c2ccc(F)cc2)c(C(=O)OCC)c1=O [Compound 82]	0%	0%	3%	28%	0%	0%	–
